Measurements as given in US11306076B2, “Silibinin lipoic acid ester with hepatoprotective activity and a method of preparing the same” (XI'AN TAIKOMED PHARMACEUTICAL TECHNOLOGY CO., LTD., priority 2020, dated 2022).

How the values were obtained:
[1] = DPPH radical scavenging activity assay; type: biochemical; settings: for DPPH Clearance rate: n = 3
From the text: 2,2-Diphenyl-1-picryl hydrazyl (DPPH) is an organic compound composed of a stable organic radical. In the DPPH molecule, due to the presence of multiple electron-withdrawing —NO2 and large π bonds of the benzene ring, nitrogen free radical is stabilized. Its methanol solution is purple and has a maximum absorption peak at 517 nm. After the addition of an antioxidant, DPPH captures an electron to be paired with the free electron, and the purple fades and turns into a yellow substance. The absorption at 517 nm disappears, and the degree of fading is quantitatively related to the number of electrons it captures. Based on this principle, a spectrophotometer is used to detect the change of the absorbance of the DPPH radical and the sample solution, and the ability of the sample to provide hydrogen atoms and scavenge free radicals can be measured.
Preparation of DPPH solution: measuring exact amount of 2,2-diphenyl-1-picryl hydrazyl (DPPH) and dissolving in toluene to prepare a 0.2 mmol/L DPPH solution, stored at 0° C. in dark.
Preparation of test solution: Vc (vitamin C, positive control), compound of formula (I) (sample), silibinin (control) and lipoic acid (control). The sample solution was subjected to gradient dilution with toluene, and three sets of controls were separately dissolved in a test tube with a certain amount of toluene to prepare the same concentration gradient as the sample.
Sample liquid absorbance measurement: Take 2 mL of sample solution (Table 2 Vc, B, C), add 2 mL of DPPH solution with concentration of 2×10^−4 mol/L, mix and react in the dark at room temperature for 30 min, adjust to zero with toluene, and measure at 517 nm. The absorbance Ai was simultaneously measured for the absorbance Aj of 2 mL of toluene mixed with 2 mL of the sample solution and the absorbance Ao of 2 mL of DPPH solution mixed with 2 mL of toluene (the experimental results are shown in Table 3).
clearance rate (%)=[1−(Ai−Aj)/Ao]*100% Clearance calculation: […]

[2] = tested on: Mice with Alcoholic Liver Injury; assay: Protective effect on alcoholic liver injury in mice (serum ALT, AST, TG); type: in vivo; settings: 25 days, ethanol 3 g/kg/day
Method: The compound of formula (I) was prepared by the method of example 7. In order to study its protective effect on alcoholic liver injury in mice, the following animal model was designed.
Three-week-old 30-35 g SPF male mice were randomly divided into normal control group, model group, low-dose group, high-dose group and tiopronin positive control group after adaptive feeding for 3 days. The normal control group and model group were fed with basic feed every day; low dose group and high dose group were fed with basic diet every day and were given the compound of formula (I) of 10 mg/kg/day and 50 mg/kg/day, respectively; tiopronin positive control group was fed with basic feed and 50 mg/kg/day tiopronin. Ethanol 3 g/kg/day (0.01 mL/g) was given to the model group, low dose group, high dose group and tiopronin positive control group. The normal control group was given distilled water of the same volume. After 25 days, fasting for 2 hours after the last administration, glutamic pyruvic transaminase (ALT), glutamic oxaloacetic transaminase (AST) and triglyceride (TG) were measured in serum by decapitation.

Compound | DPPH Clearance rate ([1]; 1.76 ppm) | DPPH Clearance rate ([1]; 8.80 ppm) | DPPH Clearance rate ([1]; 21.12 ppm) | DPPH Clearance rate ([1]; 42.24 ppm) | DPPH Clearance rate ([1]; 79.20 ppm) | DPPH Clearance rate ([1]; 112.64 ppm) | DPPH Clearance rate ([1]; 281.60 ppm) | DPPH Clearance rate ([1]; 492.80 ppm) | DPPH Clearance rate ([1]; 792.00 ppm) | DPPH Clearance rate ([1]; 915.20 ppm) | ALT ([2]; 10 mg/kg/day) | AST ([2]; 10 mg/kg/day) | TG ([2]; 10 mg/kg/day) | ALT ([2]; 50 mg/kg/day) | AST ([2]; 50 mg/kg/day) | TG ([2]; 50 mg/kg/day) | scavenging ability compared with silibinin (B) and lipoic acid (C) alone ([1]; DPPH free radicals, at the same concentration) | scavenging ability compared with the positive control Vc group ([1]; DPPH radical) | highest scavenging rate of DPPH radical ([1]; in the determined concentration range)
O=C(O)CCCCC1CCSS1 (centres unmarked) [C, Lipoic acid] | 7.27% | 8.52% | 16.42% | 23.54% | 36.45% | 41.58% | 54.23% | 67.82% | 72.01% | 73.69% | – | – | – | – | – | – | – | – | –
COc1cc(C2Oc3cc([C@H]4Oc5cc(O)cc(O)c5C(=O)[C@@H]4O)ccc3OC2COC(=O)CCCCC2CCSS2)ccc1O (stereo partly drawn) [Compound of Formula (I), (3-(4-hydroxy-3-methoxyphenyl)-6-((2R,3R)-3,5,7-trihydroxy-4-oxochroman-2-yl)-2,3-dihydrobenzo[b][1,4]dioxin-2-yl)methyl 5-(1,2-dithiolan-3-yl)pentanoate] | 12.28% | 19.80% | 32.16% | 43.55% | 69.42% | 78.95% | 81.21% | 86.70% | 90.06% | 93.52% | 61.72 ± 10.37 U/L | 139.84 ± 18.95 U/L | 0.902 ± 0.19 mmol/L | 57.21 ± 2.93 U/L | 134.56 ± 6.57 U/L | 0.873 ± 0.35 mmol/L | better | slightly weaker | 93.52%
CC(S)C(=O)NCC(=O)O (centres unmarked) [Tiopronin, tiopronin, reference compound] | – | – | – | – | – | – | – | – | – | – | – | – | – | 65.32 ± 8.79 U/L | 141.37 ± 18.75 U/L | 1.156 ± 0.33 mmol/L | – | – | –
